According to patent US5039662A, “Peptide with anti-metastasis activity” (Monsanto, priority 1989, dated 1991):
Peptide text beside a SMILES is read from it.

Assays:
HT-1080 cells = assay: In vitro cell attachment assay; format: cell-based; settings: HT-1080 human fibrosarcoma cells; attachment to peptide-coated wells / inhibition of attachment to laminin; FIG. 1
Protocol: HT-1080 cells from a human fibrosarcoma (Rasheed, S. et al., Cancer (Philadelphia) 33:1027 (1974) are maintained in Dulbecco's modified Eagle's medium (DMEM) supplemented with 10% fetal calf serum. After the cells are grown to 80% confluency, they are washed with 0.02M phosphate buffer, pH 7.4, without CA ^30 2 and Mg^30 2 and detached with a solution of 0.025% trypsin plus 0.025% ethylenediaminetetraacetic acid (EDTA; GIBCO). The cells are then pelleted by lowspeed centrifugation and resuspended in Eagle's minimal essential medium (EMEM) containing 0.02% bovine serum albumin (BSA, Sigma Chemical Co., St. Louis, Mo.). Cell attachment assays are performed as described in Klebe, R. J. Nature (London) 250:248 (1974), on tissue culture plastic substrates by using 16-mm Falcon tissue culture wells (Fisher Scientific Co., Pittsburg, Pa.) incubated with various peptides or with laminin in 1 mL of EMEM containing 0.02% BSA for 1 or 2 hours at 37° C. Cells (10^5 in 0.1 1 mL) are added to the wells, and the solution is incubated for an additional 1 hour at 37° C. in 95% air and 5% CO2. Subsequently, the wells are rinsed 3 times with 1 mL of phosphate-buffered saline (PBS) to remove unattached cells. Attached cells are trypsinized and counted electronically (Coulter, ZBI). […]

B16F10 melanoma cells = assay: Lung tumor colonization assay; format: in vivo, C57BL/6 female mice; settings: B16F10 cells (5×10^5) mixed with 0.1 mL peptide at 5 mg/mL, tail vein injection, lungs counted after three weeks, FIG. 2
Protocol: B16F10 melanoma cells, obtained from I. J. Fidler, M. D., Anderson Hospital, Houston, Tex., are propagated under standard culture conditions. The lung tumor colonization assay is carried out as described in Fidler, I. J., Nature (London) (New Biol) 242:148 (1973). Peptides are dissolved at 5 mg/mL in PBS and are filter-sterilized. The suspension of B16F10 cells (5×10^5) in 0.1 mL of DMEM is mixed with 0.1 mL of the peptide, (or 0.1 ml PBS in Control) incubated for 5 minutes at room temperature, and then injected into the tail vein of syngeneic C57BL/6 female mice (Jackson Labs., Bar Habor, Me.) at 6 weeks of age. Each treatment and control group consists of eight mice. Three weeks after the injections, the mice are killed and the number of pulmonary tumors on the surface of the lungs counted.

## CC[C@H](C)[C@H](NC(=O)[C@H](Cc1ccc(O)cc1)NC(C)=O)C(=O)NCC(=O)N[C@@H](CO)C(=O)N[C@@H](CCCNC(=N)N)C(N)=O [AcYIGSR-NH2] (Ac-YIGSR-NH2)
HT-1080 cells
  cell adhesion activity: having cell adhesion activity
B16F10 melanoma cells
  antimetastatic effectiveness (number of pulmonary tumors on the surface of the lungs) relative to YIGSR-NH2: at least twice as effective as YIGSR-NH2
B16F10 melanoma cells; listed as peptide of the invention
  antimetastatic effectiveness (number of pulmonary tumors on the surface of the lungs) relative to YIGSR-NH2: at least twice as effective as linear YIGSR-NH2
